From patent EP1344776A1, “5- 2-hydroxy-3-[1-(3-trifluoromethylphenyl)-cyclopropyl]-propionylamino -phtalide and 6- 2-hydroxy-3-[1-(3-trifluoromethylphenyl)-cyclopropyl]-propionylamino -4-methyl-2,3-benzoxazin-1-one derivatives with progesterone receptor modulating activity for use in fertility control, hormone replacement …” (Schering Aktiengesellschaft, priority 2002, dated 2003) come the findings set out here.

Where two headings read alike, the source gives them in different places.

Assay [1] has as its system Pregnant rats (Wistar Han, SPF). In words: Pregnancy maintenance test in rat. In kind it is in vivo. From the text:
In rats, castration induces termination of pregnancy. Progestins (combined with estrogens) are capable of maintaining pregnancy in castrated animals. However, the degree of pregnancy maintenance in castrated rats is optimal only in a defined dose range. Therefore, higher as well as lower doses generally induce a weaker effect. Accompanying treatment with defined doses of estrone (E1) increases the pregnancy maintaining effect of progestins.
Pregnant rats (Wistar Han, SPF) of 190 to 220 g (5 to 8 animals per dose) are ovariectomized on day 8 of pregnancy, 2 hours after the first substance administration. From day 8 to day 14, rats are daily treated with test progestin in combination with a standard dose of E1. One day later, animals are killed with carbon dioxide. For each animal, the number of living and dead fetuses is determined according to the heartbeat of the embryos. In case of empty uteri, the number of implantation sites is determined by means of staining with a 10 % ammonium sulfide solution.
S.c. (subcutaneous) application: The test progestin is dissolved in benzyl benzoate/castor oil (1+4 v/v), and the daily dose is administered in a volume of 1 ml/kg body weight.
P.o. (peroral) application: The test progestin is suspended in a carrier liquid (85 mg Myrj^R in 100 ml 0.9 % w/v NaCl solution), and the daily dose is administered in a volume of 2 ml/kg body weight.
I.p. (intraperitoneal) application: The test progestin is dissolved in propylene glycol and charged in miniature osmotic pumps (type 2001, 1.0 µl/h, 7 days), which are placed in the abdominal cavity of the rat.
The standard dose of estrone is 0.005 mg/kg body weight s.c. and is dissolved in benzyl benzoate/castor oil ([…]).
It is determined the pregnancy maintenance per animal [%], the pregnancy maintenance per dose (median of single values) and the ED50 (dose, at which pregnancy is maintained in 50 % of the animals; 100 % corresponds to control animals that are not ovariectomized).

In the next assay the test system is juvenile female rabbits. In words: Endometrial transformation in rabbit (Clauberg test). As to conditions: for McPhail Index: scores 1 to 4; for minimal effective dose: Oryctolagus cuniculus, read-out: Threshold Value. It counts as in vivo.
The target of assay [2] is T1, estrogen receptor-α (ERα) (Homo sapiens, UniProt P03372).
T1 sequence (P03372 1-595): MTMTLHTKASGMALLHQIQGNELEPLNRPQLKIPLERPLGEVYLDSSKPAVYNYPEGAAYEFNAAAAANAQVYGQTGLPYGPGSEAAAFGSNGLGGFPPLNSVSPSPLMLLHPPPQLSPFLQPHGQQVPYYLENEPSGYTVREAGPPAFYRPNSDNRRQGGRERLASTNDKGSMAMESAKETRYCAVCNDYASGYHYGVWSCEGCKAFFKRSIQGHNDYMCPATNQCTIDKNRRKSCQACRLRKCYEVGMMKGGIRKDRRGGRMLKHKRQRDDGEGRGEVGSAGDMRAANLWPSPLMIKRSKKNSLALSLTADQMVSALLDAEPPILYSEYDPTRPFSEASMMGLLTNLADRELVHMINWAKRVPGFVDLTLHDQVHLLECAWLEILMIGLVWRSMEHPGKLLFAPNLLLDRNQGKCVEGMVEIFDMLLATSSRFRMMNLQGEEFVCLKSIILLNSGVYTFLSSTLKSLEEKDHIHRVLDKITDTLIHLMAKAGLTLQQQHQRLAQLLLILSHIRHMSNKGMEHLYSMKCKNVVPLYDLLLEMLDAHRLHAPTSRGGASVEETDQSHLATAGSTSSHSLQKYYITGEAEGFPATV
Kind of assay: Estrogen receptor-α binding. As to conditions: in vitro.

In the case of `O=C1OCc2cc(NC(=O)C(O)(CC3(c4cc(C(F)(F)F)ccc4F)CC3)C(F)(F)F)ccc21` (single isomer, unassigned; (+)) [((+)-1), (+)-5-{2-hydroxy-3-[1-(2-fluoro-5-trifluoromethylphenyl)-cyclopropyl]-2-trifluoromethyl-propionylamino}-phthalide], the “Maintenance of pregnancy (rat) [ED50]” value in assay [1] (ovariectomized pregnant rats, with estrone) is reported as 0.012 mg/kg. Also, the “potency compared to levonorgestrel (LNG), pregnancy maintenance test” value in assay [1] (rat, times more potent than LNG) is recorded as “about 10”. Also, in assay [1] (rats, dose 100 times higher than the dose required for maintaining pregnancy), the “androgenic activity in pregnancy maintenance test” value is on record as “no androgenic activity”. The “McPhail Index” value turned out to be 1.2 in the assay with juvenile female rabbits (Oral (p.o.), 0.001 mg/kg); 2.5 with juvenile female rabbits (Oral (p.o.), 0.01 mg/kg); 3.0 in the assay on juvenile female rabbits (Oral (p.o.), 0.1 mg/kg); 1.0 in the assay on juvenile female rabbits (Subcutaneous (s.c.), 0.001 mg/kg); 2.7 in the assay with juvenile female rabbits (Subcutaneous (s.c.), 0.01 mg/kg); 3.8 with juvenile female rabbits (Subcutaneous (s.c.), 0.1 mg/kg). For the same compound, the minimal effective dose with juvenile female rabbits (sc, Subcutaneous (s.c.)) fell in the range of 0.001 to 0.01 mg/kg; with juvenile female rabbits (Oral (p.o.)), 0.001 to 0.01 mg/kg. Also, the “affinity for the estrogen receptor-α (ERα)” value in assay [2] was “negligible”.
